# Test results reported in US20040014812A1, “Remedies for keratoconjunctival diseases containing farnesyl acetate as the active ingredient” (SANTEN PHARMACEUTICAL CO. LTD, priority 2000, published 2004).
# Test system: lacrimal gland-nictitating membrane-harderian gland-enucleated rabbit dry eye models
# Assay: Rose bengal intake of cornea in rabbit dry eye models after instillation of ophthalmic solutions
# Type: in vivo
# Conditions: rabbit dry eye model
# Description: An effect of farnesylacetic acid on dry eye was studied by using lacrimal gland-nictitating membrane-harderian gland-enucleated rabbit dry eye models.
# Lacrimal gland-nictitating membrane-harderian gland-enucleated rabbit dry eye models were prepared by reference to the method of Girbard et al. (Invest. Ophthalmol. Vis. Sci., 28: 225-228 (1987)). Namely, a 7:1 mixture of a 5% ketamine hydrochloride injection and a 2% xylazine hydrochloride injection was injected into rabbits in an amount of 1 ml/kg to anesthetize the rabbits systemically. A 0.4% oxybuprocaine hydrochloride ophthalmic solution was instilled into the rabbits, lower lid skin was dissected in length of about 5 mm along an orbital bone, and then a lacrimal gland was enucleated from the outside of a conjunctival sac. The skin at the dissected site was sutured with 4-0 sutures, and an ofloxacin eye ointment was applied to the sutured site. Next, a harderian gland was enucleated while drawing it out with a nictitating membrane. Finally, the ofloxacin eye ointment was applied to the enucleated site.
# Farnesylacetic acid ophthalmic solutions were prepared by diluting farnesylacetic acid with the following vehicle so that its concentrations were 0.75, 7.5 and 75 μM. A gefarnate ophthalmic solution was prepared by diluting gefarnate with the same vehicle so that its concentration was 7.5 mM. All the obtained ophthalmic solutions had pH of 7.4 and osmotic pressure of 1.0.
# Each farnesylacetic acid ophthalmic solution (50 μl) was instilled into the lacrimal gland-nictitating membrane-harderian gland-enucleated rabbits six times per day for two weeks (four rabbits and eight eyes per group. The vehicle and gefarnate were instilled similarly as a control group and a comparative group respectively.
# Effects on dry eye were evaluated by measuring rose bengal intake. A 7:1 mixture of a 5% ketamine hydrochloride injection and a 2% xylazine hydrochloride injection was injected into the rabbits in an amount of 1 ml/kg to anesthetize the rabbits systemically, then eyelids were opened with an eye speculum, and the conjunctival sacs were filled with physiological saline containing 1% rose bengal. The eyes were maintained for 10 seconds and then washed with physiological saline. A 5% pentobarbital injection was injected into the rabbits to euthanatize them, and eyeballs were enucleated. Corneal pieces were prepared with a trephine having an inner diameter of 8 mm, put into 1 ml of 2 M sodium hydroxide and allowed to stand under light resistance for one day to dissolve corneal tissues completely. Absorbance at a wavelength of 560 nm of the obtained tissue-dissolved solutions was measured with a spectrophotometer.
# Rose bengal stains a portion containing no mucin layer in keratoconjunctiva. […] Accordingly, when the mucin layer decreases because of dry eye, rose bengal intake of the corneal tissues increases, and the absorbance of the tissue-dissolved solution increases.
SMILES,"Effect compared with gefarnate (7.5 mM administration group) (75 μM administration group, about 1/100 of the gefarnate concentration)","Rose bengal intake compared with vehicle administration group (0.75, 7.5 and 75 μM administration groups)","Absorbance (560 nm) of corneal tissue-dissolved solution (rose bengal intake) (ophthalmic solution 0.75 μM, 50 μl instilled six times per day for two weeks)","Absorbance (560 nm) of corneal tissue-dissolved solution (rose bengal intake) (ophthalmic solution 7.5 μM, 50 μl instilled six times per day for two weeks)","Absorbance (560 nm) of corneal tissue-dissolved solution (rose bengal intake) (ophthalmic solution 75 μM, 50 μl instilled six times per day for two weeks)","Absorbance (560 nm) of corneal tissue-dissolved solution (rose bengal intake) (ophthalmic solution 7.5 mM, instilled six times per day for two weeks)"
"CC(C)=CCC/C(C)=C/CC/C(C)=C/CCC(=O)O [Farnesylacetic acid, farnesylacetic acid]",an effect equal to that of gefarnate,apparently less than that in the vehicle administration group,0.169,0.139,0.093,
"CC(C)=CCC/C(C)=C/CC/C(C)=C/CCC(=O)OC/C=C(\C)CCC=C(C)C [gefarnate, reference compound]",,,,,,0.075
